Experimental data: US20250145606A1 (Arcus Biosciences, Inc., priority 2023, published 2025)
Where two headings read alike, the source gives them in different places.

What was measured:
FLT3 = FLT3 (Homo sapiens (Human), UniProt P36888); experiment: Inhibition of FLT3 kinase activity (HTRF KinEASE-TK); type: biochemical; conditions: biochemical, HTRF KinEASE-TK
In short: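 FLT3 tyrosine kinase activity was measured with the HTRF KinEASE-TK kit by following phosphorylation of a biotinylated TK peptide. After the 45 min reaction, 10 μL of detection mix was added: 0.2 μM (2×) Streptavidin-XL665 and 2 μM (2×) TK-Antibody-Cryptate in detection buffer. After 60 min, TR-FRET was read on an Envision as the 665 nm/620 nm emission ratio with 320 nm excitation.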

PDGFRα = PDGFRα (Homo sapiens (Human), UniProt P16234); experiment: Inhibition of PDGFRα kinase activity (HTRF KinEASE-TK); conditions: biochemical, HTRF KinEASE-TK
In short: (§1)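 Human kinases were preincubated 1 h at rt with a 22-point 1:2 compound titration, then run 120 min at rt with biotinylated TK peptide and ATP (2× mix: c-Kit 16 μM, PDGFRα 1 μM, PDGFRβ 40 μM, CSF1R 20 μM). Phosphopeptide was read by HTRF TR-FRET (665/620 nm), and IC50s came from 4-parameter fits.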

PDGFRβ = PDGFRβ (Homo sapiens (Human), UniProt P09619); experiment: Inhibition of PDGFRβ kinase activity (HTRF KinEASE-TK); conditions: biochemical, HTRF KinEASE-TK
In short: as §1

CSF1R = CSF1R (Homo sapiens (Human), UniProt P07333); experiment: Inhibition of CSF1R kinase activity (HTRF KinEASE-TK); conditions: biochemical, HTRF KinEASE-TK
In short: as §1

c-Kit = c-Kit (Homo sapiens (Human), UniProt P10721); experiment: Inhibition of c-Kit kinase activity (HTRF KinEASE-TK); type: biochemical; conditions: biochemical, HTRF KinEASE-TK
In short: as §1

[1] = system: Phospho-KIT (Y703) in M07e cells; experiment: Phospho-KIT (Y703) cellular assay in M07e cells; type: cell-based; conditions: M-07e, read-out: M07e Cell IC50
In short: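 Serum-starved M07e cells preincubated 50 min at 37° C with 11-point half-log compound titration, then stimulated 10 min with SCF at 90.9 ng/mL final. Fixed, permeabilized cells stained for phospho-KIT Y703 and read by flow cytometry (live-gated geometric mean); IC50 by 4-parameter fit normalized to DMSO and positive control.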

Chain of FLT3 (P36888 27-993): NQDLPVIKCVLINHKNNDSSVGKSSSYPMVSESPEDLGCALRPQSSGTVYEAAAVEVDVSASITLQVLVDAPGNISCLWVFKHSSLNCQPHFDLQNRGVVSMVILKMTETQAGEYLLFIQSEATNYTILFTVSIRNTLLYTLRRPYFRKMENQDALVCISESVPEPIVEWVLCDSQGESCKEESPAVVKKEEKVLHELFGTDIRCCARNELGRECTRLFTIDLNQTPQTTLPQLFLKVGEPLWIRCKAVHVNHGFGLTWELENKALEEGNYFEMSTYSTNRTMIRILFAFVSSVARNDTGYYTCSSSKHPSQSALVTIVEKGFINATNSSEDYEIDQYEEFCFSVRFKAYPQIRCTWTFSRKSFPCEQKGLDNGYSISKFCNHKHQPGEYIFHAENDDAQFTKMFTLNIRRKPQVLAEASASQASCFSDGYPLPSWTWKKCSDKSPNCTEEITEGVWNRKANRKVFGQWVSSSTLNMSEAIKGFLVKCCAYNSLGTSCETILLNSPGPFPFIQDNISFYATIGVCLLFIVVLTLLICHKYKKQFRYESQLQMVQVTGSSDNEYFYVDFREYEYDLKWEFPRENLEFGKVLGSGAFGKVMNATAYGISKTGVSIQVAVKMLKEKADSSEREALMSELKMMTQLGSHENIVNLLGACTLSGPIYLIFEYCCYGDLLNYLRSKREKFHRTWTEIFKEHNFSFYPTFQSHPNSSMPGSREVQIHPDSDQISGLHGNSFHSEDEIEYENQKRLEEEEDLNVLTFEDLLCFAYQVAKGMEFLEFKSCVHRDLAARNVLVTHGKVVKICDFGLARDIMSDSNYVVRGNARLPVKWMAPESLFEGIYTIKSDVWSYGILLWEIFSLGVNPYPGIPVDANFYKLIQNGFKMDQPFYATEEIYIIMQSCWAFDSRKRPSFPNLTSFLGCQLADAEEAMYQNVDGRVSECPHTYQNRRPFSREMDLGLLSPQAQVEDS
Chain of PDGFRβ (P09619 33-1106): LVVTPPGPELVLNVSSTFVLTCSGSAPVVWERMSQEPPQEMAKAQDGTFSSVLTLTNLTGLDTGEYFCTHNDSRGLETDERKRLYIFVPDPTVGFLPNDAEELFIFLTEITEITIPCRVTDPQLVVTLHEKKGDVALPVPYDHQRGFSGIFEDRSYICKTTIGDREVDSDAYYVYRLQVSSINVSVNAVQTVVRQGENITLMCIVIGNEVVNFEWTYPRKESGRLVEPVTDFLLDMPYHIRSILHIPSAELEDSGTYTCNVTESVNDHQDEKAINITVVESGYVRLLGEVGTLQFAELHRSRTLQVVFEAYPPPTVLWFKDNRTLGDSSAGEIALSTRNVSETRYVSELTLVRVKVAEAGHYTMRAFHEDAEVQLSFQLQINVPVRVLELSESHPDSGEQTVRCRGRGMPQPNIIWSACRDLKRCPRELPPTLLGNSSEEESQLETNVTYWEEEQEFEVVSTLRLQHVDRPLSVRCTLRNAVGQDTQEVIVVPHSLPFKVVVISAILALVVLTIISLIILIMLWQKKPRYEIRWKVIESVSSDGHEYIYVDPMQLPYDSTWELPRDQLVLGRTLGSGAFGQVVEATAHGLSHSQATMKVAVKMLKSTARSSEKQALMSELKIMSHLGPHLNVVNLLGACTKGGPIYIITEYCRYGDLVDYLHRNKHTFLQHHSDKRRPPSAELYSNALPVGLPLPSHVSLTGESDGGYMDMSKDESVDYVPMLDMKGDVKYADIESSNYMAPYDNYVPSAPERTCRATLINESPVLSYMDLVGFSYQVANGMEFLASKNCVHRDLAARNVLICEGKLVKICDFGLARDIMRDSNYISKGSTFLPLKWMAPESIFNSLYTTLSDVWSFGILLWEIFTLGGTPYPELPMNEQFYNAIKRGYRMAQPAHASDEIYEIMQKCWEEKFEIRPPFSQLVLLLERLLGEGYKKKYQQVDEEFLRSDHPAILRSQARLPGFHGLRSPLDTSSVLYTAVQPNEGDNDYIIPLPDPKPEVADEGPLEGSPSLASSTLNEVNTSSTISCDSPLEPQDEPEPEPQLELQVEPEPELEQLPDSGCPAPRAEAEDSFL
Chain of c-Kit (P10721 26-976): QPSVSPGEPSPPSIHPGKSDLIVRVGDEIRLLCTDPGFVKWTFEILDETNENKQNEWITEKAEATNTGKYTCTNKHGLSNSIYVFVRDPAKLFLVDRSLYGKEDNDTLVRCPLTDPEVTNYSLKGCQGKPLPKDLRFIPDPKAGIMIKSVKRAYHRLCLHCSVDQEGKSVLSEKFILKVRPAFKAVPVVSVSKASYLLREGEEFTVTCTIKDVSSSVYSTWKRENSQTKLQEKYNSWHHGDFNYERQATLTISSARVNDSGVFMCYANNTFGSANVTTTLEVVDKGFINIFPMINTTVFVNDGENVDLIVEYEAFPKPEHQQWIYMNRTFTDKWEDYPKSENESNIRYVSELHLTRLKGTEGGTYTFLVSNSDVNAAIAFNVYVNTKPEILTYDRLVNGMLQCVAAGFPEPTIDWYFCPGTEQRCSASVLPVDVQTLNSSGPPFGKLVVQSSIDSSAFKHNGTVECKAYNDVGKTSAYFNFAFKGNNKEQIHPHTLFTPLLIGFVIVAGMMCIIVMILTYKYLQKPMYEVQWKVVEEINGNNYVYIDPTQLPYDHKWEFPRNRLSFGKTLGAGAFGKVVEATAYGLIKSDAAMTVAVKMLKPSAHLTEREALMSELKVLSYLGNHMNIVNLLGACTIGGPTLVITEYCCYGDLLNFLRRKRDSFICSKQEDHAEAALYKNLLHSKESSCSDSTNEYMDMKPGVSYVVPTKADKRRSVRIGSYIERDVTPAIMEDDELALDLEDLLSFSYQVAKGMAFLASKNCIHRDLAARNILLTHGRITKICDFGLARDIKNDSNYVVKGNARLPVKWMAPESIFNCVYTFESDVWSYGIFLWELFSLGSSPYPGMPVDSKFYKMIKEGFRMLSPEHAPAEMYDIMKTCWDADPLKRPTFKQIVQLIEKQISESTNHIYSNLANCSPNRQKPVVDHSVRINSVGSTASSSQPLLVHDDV
Chain of PDGFRα (P16234 24-1089): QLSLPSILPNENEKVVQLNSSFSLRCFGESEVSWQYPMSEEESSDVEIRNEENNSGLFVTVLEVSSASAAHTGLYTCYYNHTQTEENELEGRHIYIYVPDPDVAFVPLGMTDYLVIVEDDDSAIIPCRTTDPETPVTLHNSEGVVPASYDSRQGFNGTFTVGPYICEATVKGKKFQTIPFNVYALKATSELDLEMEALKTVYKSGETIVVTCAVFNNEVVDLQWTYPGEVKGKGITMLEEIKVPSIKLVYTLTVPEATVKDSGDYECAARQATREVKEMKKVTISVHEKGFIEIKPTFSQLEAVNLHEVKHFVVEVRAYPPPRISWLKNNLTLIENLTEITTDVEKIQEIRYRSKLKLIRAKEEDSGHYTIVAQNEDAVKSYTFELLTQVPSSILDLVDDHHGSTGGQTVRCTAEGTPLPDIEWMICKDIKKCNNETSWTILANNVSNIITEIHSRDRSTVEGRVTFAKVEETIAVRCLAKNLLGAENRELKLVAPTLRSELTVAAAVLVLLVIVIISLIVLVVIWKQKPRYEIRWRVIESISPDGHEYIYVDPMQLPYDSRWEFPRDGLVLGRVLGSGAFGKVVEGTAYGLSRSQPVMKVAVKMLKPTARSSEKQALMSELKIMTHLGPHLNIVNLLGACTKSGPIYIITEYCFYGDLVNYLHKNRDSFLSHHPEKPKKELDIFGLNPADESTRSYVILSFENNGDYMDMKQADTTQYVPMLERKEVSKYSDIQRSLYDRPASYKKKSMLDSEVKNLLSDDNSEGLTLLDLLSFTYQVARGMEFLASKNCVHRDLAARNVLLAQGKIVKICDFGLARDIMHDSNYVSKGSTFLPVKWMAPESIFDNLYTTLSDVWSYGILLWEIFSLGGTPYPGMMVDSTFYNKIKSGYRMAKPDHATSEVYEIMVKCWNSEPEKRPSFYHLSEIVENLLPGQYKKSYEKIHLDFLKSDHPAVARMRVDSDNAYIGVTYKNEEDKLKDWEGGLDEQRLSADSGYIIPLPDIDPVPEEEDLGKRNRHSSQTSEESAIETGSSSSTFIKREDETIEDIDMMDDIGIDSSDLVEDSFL
Chain of CSF1R (P07333 20-972): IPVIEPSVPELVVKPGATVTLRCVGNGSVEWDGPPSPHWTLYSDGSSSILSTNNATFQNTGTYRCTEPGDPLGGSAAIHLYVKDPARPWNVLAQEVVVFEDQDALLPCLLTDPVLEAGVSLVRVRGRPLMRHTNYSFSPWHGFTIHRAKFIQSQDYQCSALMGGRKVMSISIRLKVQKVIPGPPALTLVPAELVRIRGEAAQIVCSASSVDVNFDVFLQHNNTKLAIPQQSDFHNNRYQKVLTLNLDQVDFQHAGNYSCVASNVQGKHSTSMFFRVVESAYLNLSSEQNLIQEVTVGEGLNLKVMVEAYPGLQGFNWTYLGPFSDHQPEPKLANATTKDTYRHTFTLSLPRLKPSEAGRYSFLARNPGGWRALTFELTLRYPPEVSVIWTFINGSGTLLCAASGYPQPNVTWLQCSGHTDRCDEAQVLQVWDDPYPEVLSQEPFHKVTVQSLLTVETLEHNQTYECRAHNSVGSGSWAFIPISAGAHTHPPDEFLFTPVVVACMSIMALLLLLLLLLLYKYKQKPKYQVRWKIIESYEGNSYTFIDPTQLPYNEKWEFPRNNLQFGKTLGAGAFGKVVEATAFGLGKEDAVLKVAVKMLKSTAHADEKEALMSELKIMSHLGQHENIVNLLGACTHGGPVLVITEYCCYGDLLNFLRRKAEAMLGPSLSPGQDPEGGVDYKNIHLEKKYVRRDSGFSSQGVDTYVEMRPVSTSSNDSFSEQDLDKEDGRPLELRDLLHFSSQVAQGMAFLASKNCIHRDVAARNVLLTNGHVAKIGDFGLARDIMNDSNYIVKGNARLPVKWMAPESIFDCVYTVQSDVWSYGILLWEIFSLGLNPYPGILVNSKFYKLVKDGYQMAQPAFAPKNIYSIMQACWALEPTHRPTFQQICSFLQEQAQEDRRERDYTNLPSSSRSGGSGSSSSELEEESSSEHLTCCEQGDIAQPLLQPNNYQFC

SMILES	IC50 (FLT3) [nM]	IC50 (PDGFRα) [nM]	IC50 (PDGFRβ) [nM]	IC50 (CSF1R) [nM]	IC50 (c-Kit) [nM]	IC50 ([1]; Phospho-KIT (Y703), M07e cells) [nM]	IC50 [1] [nM]
Cc1ncc(C(=O)Nc2cc(C(=O)Nc3ccc(OC(C)C)cn3)c(F)cc2C)s1 [Example 40, N-[4-fluoro-2-methyl-5-[(5-propan-2-yloxypyridin-2-yl)carbamoyl]phenyl]-2-methyl-1,3-thiazole-5-carboxamide]	> 1000	> 1000	> 1000	> 1000	< 100	< 100	–
Cc1ncc(C(=O)Nc2cc(C(=O)Nc3ccc(CC(F)F)cn3)c(F)cc2C)s1 [Example 45, N-[5-[[5-(2,2-difluoroethyl)pyridin-2-yl]carbamoyl]-4-fluoro-2-methylphenyl]-2-methyl-1,3-thiazole-5-carboxamide]	> 1000	> 1000	> 1000	> 1000	< 100	–	< 100
Cc1ncc(C(=O)Nc2cc(C(=O)Nc3ccn(C(C)C)n3)c(F)cc2C)s1 [Example 63, N-[4-Fluoro-2-methyl-5-[(1-propan-2-ylpyrazol-3-yl)carbamoyl]phenyl]-2-methyl-1,3-thiazole-5-carboxamide]	> 1000	> 1000	> 1000	> 1000	< 100	< 100	–
Cc1ncc(C(=O)Nc2cc(C(=O)Nc3ccn(CC(C)C)n3)c(F)cc2C)s1 [Example 64, N-[4-fluoro-2-methyl-5-[[1-(2-methylpropyl)pyrazol-3-yl]carbamoyl]phenyl]-2-methyl-1,3-thiazole-5-carboxamide]	> 1000	> 1000	> 1000	> 1000	< 100	< 100	–
Cc1ncc(C(=O)Nc2cc(C(=O)Nc3ccc(C4(C(F)(F)F)CC4)cn3)c(F)cc2C)s1 [Example 67]	> 1000	> 1000	100 to 1000	> 1000	< 100	< 100	–
Cc1ncc(C(=O)Nc2cc(C(=O)Nc3ccc(CC(F)(F)F)cn3)c(C)cc2C)s1 [Example 75, N-(2,4-dimethyl-5-((5-(2,2,2-trifluoroethyl)pyridin-2-yl)carbamoyl)phenyl)-2-methylthiazole-5-carboxamide]	> 1000	> 1000	> 1000	> 1000	100 to 1000	–	100 to 1000
Cc1ncc(C(=O)Nc2cc(C(=O)Nc3ccc(COC(F)F)cn3)c(F)cc2C)s1 [Example 78, N-[5-[[5-(difluoromethoxymethyl)pyridin-2-yl]carbamoyl]-4-fluoro-2-methylphenyl]-2-methyl-1,3-thiazole-5-carboxamide]	> 1000	> 1000	> 1000	> 1000	< 100	–	< 100
Cc1ncc(C(=O)Nc2cc(C(=O)Nc3cncc(COC(F)F)c3)c(F)cc2C)s1 [Example 80, N-[5-[[5-(difluoromethoxymethyl)pyridin-3-yl]carbamoyl]-4-fluoro-2-methylphenyl]-2-methyl-1,3-thiazole-5-carboxamide]	> 1000	> 1000	> 1000	> 1000	< 100	–	< 100
CCc1ccc(NC(=O)c2cc(NC(=O)c3cnc(C)s3)c(C)cc2F)nc1 [Example 82, N-[5-[(5-ethylpyridin-2-yl)carbamoyl]-4-fluoro-2-methylphenyl]-2-methyl-1,3-thiazole-5-carboxamide]	> 1000	> 1000	> 1000	> 1000	< 100	< 100	–
Cc1ncc(C(=O)Nc2cc(C(=O)Nc3cnc(N4CCC[C@@H]4C)cn3)c(F)cc2C)s1 [Example 83, N-(5-{N-5-[(S)-2-methyl-1-pyrrolidinyl]-2-pyrazinylcarbamoyl}-4-fluoro-2-tolyl)-2-methyl-1,3-thiazole-5-carboxamide]	> 1000	> 1000	> 1000	> 1000	< 100	< 100	–
Cc1ncc(C(=O)Nc2cc(C(=O)Nc3cnc(OCC(F)F)cn3)c(F)cc2C)s1 [Example 86, N-{5-[N-5-(2,2-difluoroethoxy)-2-pyrazinylcarbamoyl]-4-fluoro-2-tolyl}-2-methyl-1,3-thiazole-5-carboxamide]	> 1000	100 to 1000	> 1000	> 1000	< 100	< 100	–
Cc1ncc(C(=O)Nc2cc(C(=O)Nc3cnc(OCC(F)(F)F)cn3)c(F)cc2C)s1 [Example 89, N-{5-[N-5-(2,2,2-trifluoroethoxy)-2-pyrazinylcarbamoyl]-4-fluoro-2-tolyl}-2-methyl-1,3-thiazole-5-carboxamide]	> 1000	> 1000	> 1000	> 1000	< 100	< 100	–
Cc1ncc(C(=O)Nc2cc(C(=O)Nc3cnc(N4CCC[C@@H]4C(F)(F)F)cn3)c(F)cc2C)s1 [Example 96, N-[4-fluoro-2-methyl-5-[[5-[(2R)-2-(trifluoromethyl)pyrrolidin-1-yl]pyrazin-2-yl]carbamoyl]phenyl]-2-methyl-1,3-thiazole-5-carboxamide]	> 1000	> 1000	> 1000	> 1000	< 100	< 100	–
Cc1cc(F)c(C(=O)N[C@H]2CCOC2)cc1NC(=O)c1cnc(NC(=O)N2CCC2)s1 [Example 102, 2-(Azetidine-1-carbonylamino)-N-[4-fluoro-2-methyl-5-[[(3S)-oxolan-3-yl]carbamoyl]phenyl]-1,3-thiazole-5-carboxamide]	> 1000	> 1000	> 1000	100 to 1000	< 100	100 to 1000	–
Cc1cc(F)c(C(=O)NCC2(F)CC2)cc1NC(=O)c1cnc(NC(=O)N2CCC2)s1 [Example 103, 2-(Azetidine-1-carbonylamino)-N-[4-fluoro-5-[(1-fluorocyclopropyl)methylcarbamoyl]-2-methylphenyl]-1,3-thiazole-5-carboxamide]	> 1000	100 to 1000	100 to 1000	> 1000	< 100	< 100	–
Cc1cc(F)c(C(=O)Nc2ccc3c(n2)COCC3)cc1NC(=O)c1cnc(N)s1 [Example 114, 2-Amino-N-[5-(6,8-dihydro-5H-pyrano[3,4-b]pyridin-2-ylcarbamoyl)-4-fluoro-2-methylphenyl]-1,3-thiazole-5-carboxamide]	> 1000	100 to 1000	100 to 1000	100 to 1000	< 100	< 100	–
Cc1cc(F)c(C(=O)Nc2ccc3c(n2)CCOC3)cc1NC(=O)c1cnc(N)s1 [Example 115, 2-Amino-N-[5-(7,8-dihydro-5H-pyrano[4,3-b]pyridin-2-ylcarbamoyl)-4-fluoro-2-methylphenyl]-1,3-thiazole-5-carboxamide]	> 1000	> 1000	> 1000	100 to 1000	< 100	< 100	–
Cc1cc(F)c(C(=O)Nc2ccc(O[C@H]3CCOC3)cn2)cc1NC(=O)c1cnc(N)s1 [Example 117, 2-Amino-N-[4-fluoro-2-methyl-5-[[5-[(3S)-oxolan-3-yl]oxypyridin-2-yl]carbamoyl]phenyl]-1,3-thiazole-5-carboxamide]	> 1000	> 1000	> 1000	> 1000	< 100	< 100	–
Cc1cc(F)c(C(=O)Nc2ccc(C3(C#N)CC3)cn2)cc1NC(=O)c1cnc(N)s1 [Example 118, 2-Amino-N-[5-[[5-(1-cyanocyclopropyl)pyridin-2-yl]carbamoyl]-4-fluoro-2-methylphenyl]-1,3-thiazole-5-carboxamide]	> 1000	> 1000	100 to 1000	100 to 1000	< 100	< 100	–
Cc1cc(F)c(C(=O)NCC(F)(F)F)cc1NC(=O)c1cnc(N)s1 [Example 122, 2-Amino-N-[4-fluoro-2-methyl-5-(2,2,2-trifluoroethylcarbamoyl)phenyl]-1,3-thiazole-5-carboxamide]	> 1000	> 1000	> 1000	> 1000	< 100	< 100	–
CO[C@H]1C[C@@H](NC(=O)c2cc(NC(=O)c3cnc(N)s3)c(C)cc2F)C1 [Example 123, 2-Amino-N-[4-fluoro-5-[(3-methoxycyclobutyl)carbamoyl]-2-methylphenyl]-1,3-thiazole-5-carboxamide]	> 1000	> 1000	> 1000	> 1000	< 100	< 100	–
